We go through 10 compounds from patent publication US20230220001A1, “METHOD FOR SYNTHESIS OF THIOETHER-[…]” ([…] RESEARCH GMBH, priority 2020, published 2023).

One series deals with OATP1B3. Nature of the series: Cell viability assay (BrdU incorporation) on HEK293-OATP1B3 cells overexpressing OATP1B3. The note with it: human, HEK293-OATP1B3 cells (overexpress OATP1B3), 96 h drug exposure, read-out: Cytotoxicity on HEK-OATP1B3 cells EC50. Format: cell-based. Here is the method: (§1) Cytotoxicity of compounds of the invention was assessed using an RNA Polymerase II inhibition assay and by assessing cytotoxicity in a cell viability assay on HEK cells and HEK-OATP1 B3 cells, the results of which are depicted in Table 6.
(§2) Cell Viability Assay (HEK and HEK-OATP1B3 Cells)
(§3) The in vitro toxicity of the inventive compounds was determined in Human embryonic kidney HEK293 cells and in HEK293-OATP1B3 cells that overexpress the organic anion-transporting polypeptide […] (OATP1B3) to assess whether OATP1 B3 mediates active transport of amanitin analogues into the cell. Wildtype HEK293 (ATCC, Manassas, Va.) and HEK293-OATP1 B3 cells (see: Pahl et al., Cytotoxic Payloads for Antibody-Drug Conjugates In: Amatoxins as RNA Polymerase II Inhibiting Antibody-Drug Conjugate (ADC) Payloads CHAPTER 19, The Royal Society of Chemistry 2019, ISBN: 978-1-78801-077-1, or e.g. Bowman et al. Drug Metab Dispos 48:18-24, January 2020) were incubated with compound 7f (α-amanitin) or the compounds as disclosed in Table 6. Cytotoxicity was determined by a BrdU assay. HEK293 and HEK-OATP1B3 cells were plated at 2.5×10^3 cells/well in a 1:1 mixture of Ham's F12 with DMEM containing 10% charcoal-stripped FCS onto poly-D-lysine-coated 96-well plates and grown for 24 hours. Subsequently, cells were incubated with amanitin derivatives at 8 different concentrations (1×10^−6 M to 1.28×10^−11 M, serial 1:5 dilutions). Following 96 h of drug exposure, cell viability was determined by a BrdU incorporation assay (Cell Proliferation ELISA, BrdU, Roche) and chemiluminescence was measured using a FLUOstar Optima plate reader (BMG LABtech). Data analysis was performed with GraphPad Prism 9.0 (GraphPad Software, Inc., La Jolla, Calif.) software to plot curve fits.
A general note: Incorporation of labelled thymidine or its analogues reports DNA synthesis.

Series [1] in a line: Cell viability assay (BrdU incorporation) on HEK293 cells. Format: cell-based. Particulars: human, wildtype HEK293 cells, 96 h drug exposure, read-out: Cytotoxicity on HEK-293 cells EC50. Here is the method: as §1, §2, §3
The target in a further series is T1, RNA Polymerase II (Homo sapiens, UniProt P24928).
T1 construct: HeLaScribe® Nuclear extract in vitro transcription system (Promega, #E3092); host or cells: HeLa nuclear extract (purchased)
Kind of series: RNA Polymerase II assay (HeLaScribe nuclear extract in vitro transcription system, RT-PCR quantification of mRNA). Format: biochemical. The note with it: for residual RNAP II activity at highest concentration tested: highest concentration tested (range up to 1×10^−6 M). Here is the method: as §1
The in vitro RNA Pol II assay was done using a HeLaScribe® Nuclear extract in vitro transcription system (Promega, #E3092) was used to compare the inhibitory effect of amanitin analogues on RNA Pol at seven concentrations from 6.4×10^−11 M to 1×10^−6 M (serial 1:5 dilutions). As positive control, template run-off transcripts from a CMV immediate early promoter were used (Promega, #E3092). Reverse transcription was followed by real time-PCR for the quantification of the mRNA product. RNA detection was performed using a QuantiFast Probe RT-PCR Plus Kit (Qiagen). The PCR product was monitored by determination of fluorescence on a Real Time PCR CFX Connect Real Time System (Bio-Rad Laboratories Inc.). α-amanitin, analogues and untreated control were each analyzed in triplicates. Negative control, positive control and no target control were analyzed in duplicates. The ACT method was used to calculate the inhibitory effect of the test item on transcription normalized to the untreated control.

For series [2] the following is noted: slow acting toxin; T. Wieland 1986; cited from earlier work.

SMILES strings stand for the structures. Starred links: 1 amine or outer side, 2 acyl side, 3 side chain; linkers in the order of their positions; H or OH if unused. Positions of bridges follow the written chain, without caps; N, C: chain ends. Non-standard residues stand in square brackets, D forms with d. Residues, ends and D or L forms follow the SMILES beside them. Trp(2-yl) = O=C([C@H](Cc1c([*:3])[nH]c2ccccc12)N[*:1])[*:2]; Ile(4R-OH,5-OH) = C[C@H]([C@H](N)C(=O)O)[C@@H](O)CO; Pro(4,4-F2) = O=C(O)[C@@H]1CC(F)(F)CN1; Hyp = O=C(O)[C@@H]1C[C@@H](O)CN1; Tle = CC(C)(C)[C@H](N)C(=O)O; Aze = O=C(O)[C@@H]1CCN1; Ac3c = NC1(C(=O)O)CC1; Aib = CC(C)(N)C(=O)O; Sar = CNCC(=O)O

A word on the EC50: it is the concentration at which the effect is half-maximal. One may read the IC50 as the point on the concentration scale where inhibition reaches its midpoint. Low readings indicate greater potency, high ones weaker potency. In the case of `CC[C@H](C)[C@@H]1NC(=O)CNC(=O)[C@@H]2Cc3c([nH]c4ccccc34)SC[C@H](NC(=O)CNC1=O)C(=O)N[C@@H](CC(N)=O)C(=O)N1C[C@H](O)C[C@H]1C(=O)N[C@@H]([C@@H](C)[C@@H](O)CO)C(=O)N2` [Compound 7d] (cyclo(CN[Hyp][Ile(4R-OH,5-OH)][Trp(2-yl)]GIG); thioether 1-5), the concentration giving a half-maximal response (EC50) at 96 h turned out to be 0.23 nM with OATP1B3 and 81 nM in series [1]. In addition, the midpoint of inhibition against RNA Polymerase II, the IC50, lay at 6.8 nM.
Usually LD50 stands for the dose at which mortality reaches 50%. For `CC[C@H](C)[C@@H]1NC(=O)CNC(=O)[C@@H]2Cc3c([nH]c4cc(O)ccc34)[S@+]([O-])C[C@H](NC(=O)CNC1=O)C(=O)N[C@@H](CC(N)=O)C(=O)N1C[C@H](O)C[C@H]1C(=O)N[C@@H]([C@@H](C)[C@@H](O)CO)C(=O)N2` [Compound 7f, Alpha-amanitin, reference compound], the EC50 at 96 h in the series with OATP1B3 was 5.2 nM; in series [1], 210 nM. For the same compound, in series [2], the median lethal dose (LD50) is 0.05 to 0.1 mg/kg. On RNA Polymerase II, this compound displayed a half-inhibitory concentration (IC50) of 2.7 nM.
As to `CC[C@H](C)[C@@H]1NC(=O)CNC(=O)[C@@H]2Cc3c([nH]c4ccccc34)SC[C@H](NC(=O)[C@H]3CCCN3C1=O)C(=O)N[C@@H](CC(N)=O)C(=O)N1C[C@H](O)C[C@H]1C(=O)N[C@@H]([C@@H](C)[C@@H](O)CO)C(=O)N2` [Compound 7i] (cyclo(CN[Hyp][Ile(4R-OH,5-OH)][Trp(2-yl)]GI[dP]); thioether 1-5), the concentration for a half-maximal effect (EC50) at 96 h in the series on OATP1B3 was 210 nM. In addition, in series [1], the EC50 at 96 h was above 1000 nM. Further, at RNA Polymerase II, the half-inhibitory concentration (IC50) was 12 nM and the “residual RNAP II activity at highest concentration tested” value (“residual RNAP II activity” below) was found to be 20%.
`CC[C@H](C)[C@@H]1NC(=O)CNC(=O)[C@@H]2Cc3c([nH]c4ccccc34)SC[C@H](NC(=O)CN(C)C1=O)C(=O)N[C@@H](CC(N)=O)C(=O)N1C[C@H](O)C[C@H]1C(=O)N[C@@H]([C@@H](C)[C@@H](O)CO)C(=O)N2` [Compound 7l] (cyclo(CN[Hyp][Ile(4R-OH,5-OH)][Trp(2-yl)]GI[Sar]); thioether 1-5): in the series on OATP1B3, the 50% effective concentration (EC50) at 96 h is 29 nM. Moreover, the EC50 at 96 h in series [1] is above 1000 nM. Besides, on RNA Polymerase II, inhibition was half-maximal at 15 nM (IC50) and the “residual RNAP II activity” value worked out at 10%.
On to `CC[C@H](C)[C@@H]1NC(=O)CNC(=O)[C@@H]2Cc3c([nH]c4ccccc34)SC[C@H](NC(=O)C(C)(C)NC1=O)C(=O)N[C@@H](CC(N)=O)C(=O)N1C[C@H](O)C[C@H]1C(=O)N[C@@H]([C@@H](C)[C@@H](O)CO)C(=O)N2` [Compound 7m] (cyclo([Aib]CN[Hyp][Ile(4R-OH,5-OH)][Trp(2-yl)]GI); thioether 2-6), for which the EC50 at 96 h in the series on OATP1B3 stood at 120 nM. The EC50 at 96 h in series [1] is above 1000 nM. For the same compound, at RNA Polymerase II, the concentration for half-maximal inhibition (IC50) came to 71 nM and the “residual RNAP II activity” value stood at 15%.
On to `CC[C@H](C)[C@@H]1NC(=O)CNC(=O)[C@@H]2Cc3c([nH]c4ccccc34)SC[C@H](NC(=O)CNC1=O)C(=O)N[C@@H](CC(N)=O)C(=O)N1CC[C@H]1C(=O)N[C@@H]([C@@H](C)[C@@H](O)CO)C(=O)N2` [Compound 7n] (cyclo([Aze][Ile(4R-OH,5-OH)][Trp(2-yl)]GIGCN); thioether 3-7), for which the EC50 at 96 h in the series with OATP1B3 is above 100 nM; in series [1], above 1000 nM. On RNA Polymerase II, this compound gave an IC50 of 160 nM. Moreover, the “residual RNAP II activity” value on RNA Polymerase II turned out to be 40%.
With `CC[C@H](C)[C@@H]1NC(=O)CNC(=O)[C@@H]2Cc3c([nH]c4ccccc34)SC[C@H](NC(=O)[C@@H](C)NC1=O)C(=O)N[C@@H](CC(N)=O)C(=O)N1C[C@H](O)C[C@H]1C(=O)N[C@@H]([C@@H](C)[C@@H](O)CO)C(=O)N2` [Compound 7o] (cyclo(CN[Hyp][Ile(4R-OH,5-OH)][Trp(2-yl)]GI[dA]); thioether 1-5), the values for the EC50 at 96 h (in the series on OATP1B3; in series [1]) were 28 nM and above 1000 nM, respectively. The IC50 at RNA Polymerase II amounted to 1.4 nM.
The like results for `C[C@H]([C@@H]1NC(=O)[C@@H]2C[C@@H](O)CN2C(=O)[C@H](CC(N)=O)NC(=O)[C@@H]2CSc3[nH]c4ccccc4c3C[C@H](NC1=O)C(=O)NCC(=O)N[C@@H](C(C)(C)C)C(=O)NCC(=O)N2)[C@@H](O)CO` [Compound 7p] (cyclo(CN[Hyp][Ile(4R-OH,5-OH)][Trp(2-yl)]G[Tle]G); thioether 1-5) were, in that order, 16 nM, above 1000 nM and 25 nM.
Take `CC[C@H](C)[C@@H]1NC(=O)CNC(=O)[C@@H]2Cc3c([nH]c4ccccc34)SC[C@H](NC(=O)CNC1=O)C(=O)N[C@@H](CC(N)=O)C(=O)N1CC(F)(F)C[C@H]1C(=O)N[C@@H]([C@@H](C)[C@@H](O)CO)C(=O)N2` [Compound 7q] (cyclo(CN[Pro(4,4-F2)][Ile(4R-OH,5-OH)][Trp(2-yl)]GIG); thioether 1-5): the EC50 at 96 h in the series with OATP1B3 is 49 nM; in series [1], above 1000 nM. The compound also had a 50% inhibitory concentration (IC50) against RNA Polymerase II of 110 nM. On RNA Polymerase II, the “residual RNAP II activity” value is 10%.
As to `CC[C@H](C)[C@@H]1NC(=O)CNC(=O)[C@@H]2Cc3c([nH]c4ccccc34)SC[C@H](NC(=O)C3(CC3)NC1=O)C(=O)N[C@@H](CC(N)=O)C(=O)N1C[C@H](O)C[C@H]1C(=O)N[C@@H]([C@@H](C)[C@@H](O)CO)C(=O)N2` [Compound 7r] (cyclo([Ac3c]CN[Hyp][Ile(4R-OH,5-OH)][Trp(2-yl)]GI); thioether 2-6), the EC50 at 96 h is 10 nM in the series with OATP1B3 and above 1000 nM in series [1]. The IC50 against RNA Polymerase II was found to be 26 nM.
